Read-outs that look alike come from different tables or passages of the source.
Columns and labels:
[1] = test system: E. coli strains 25922, 35218, 14182, 16327, 14384; assay: MIC against the 5 listed E. coli strains of Table 2 (stated together); type: cell-based, Escherichia coli; conditions: absence of Compound B
Experimental: (§1) Minimal inhibitory concentrations (MICs) were determined as previously described. […] MICs were determined by microdilution susceptibility testing in 96-well plates (by Nunc) using inocula of 10^5 bacteria per ml. Cell populations were evaluated by optical density measurements at 620 nm and were calibrated against a set of standards. Hundred (100) μl of a bacterial suspension were added to 100 μl of culture medium (control) or to 100 μl of culture medium containing various tested compound concentrations in 2-fold serial dilutions. Inhibition of proliferation was determined by optical density measurements at 620 nm after an incubation period of 24 hours at 37° C. Data were obtained from ≥2 independent experiments performed in duplicate.
(§2) Shown in parentheses are calculated sensitization factor, defined as antibiotic's MICs ratio (in absence vs. presence of Compound B) at specified Compound B concentration.

[2] = test system: Escherichia coli 25922; assay: Mouse peritonitis-sepsis model; type: in vivo; conditions: neutropenic ICR mice; rifampin 20 mg/kg orally alone
Experimental: A mouse peritonitis-sepsis model was created as described elsewhere. Infection was obtained after intraperitoneal injection of bacteria from a logarithmic-phase culture. Infected mice were treated subcutaneously. The doses were selected to allow comparison with the reference compound and to remain below the maximum tolerated dose after double-dose administration. […] Briefly, mouse peritonitis sepsis model for in vivo studies were performed using male ICR mice ([…]) obtained from Envigo Laboratories (Rehovot, Israel). […] Infection was obtained by intraperitoneal injection of a logarithmic phase culture of E. coli 25922 (1.3±0.2×10^6 CFU permouse in 0.3 ml PBS). […] Infection control mice were injected with the PBS vehicle. Mouse survival was monitored for up to 7 days after treatment. Statistical analyses were performed by paired Student's t test, at α=0.05.

[3] = test system: E. coli 25922; assay: Simultaneous versus delayed drug exposure assay in LB; type: cell-based, Escherichia coli
Experimental: (§3) Time-kill kinetics data were determined using 100 μl of bacterial suspension (10^6 CFU/ml), which was added to […] LB containing none of or specified concentrations of the tested compound, antibiotic, and combinations thereof. After the specified exposure time points (37° C. under shaking), aliquots were formed, subjected to serial 10-fold dilutions in saline (0.85% NaCl), and plated for bacterial enumeration after additional 24 hours incubation at 37° C. Time-kill experiments in human and mouse plasma were performed as described elsewhere. The effects of drug delay were assessed in LB, except that bacteria were pre-incubated with the tested compound or antibiotic for the specified time points, centrifuged, and resuspended in fresh LB-containing antibiotic or the tested compound, respectively, and incubated for 3 hours before CFU enumeration.

[4] = test system: E. coli strain 35218; assay: Checkerboard antibiotic MIC with Compound B; type: cell-based, Escherichia coli
Experimental: as §1, §2

[5] = test system: E. coli strain 25922; assay: Checkerboard antibiotic MIC with Compound B; type: cell-based, Escherichia coli
Experimental: as §1, §2

[6] = test system: E. coli strain 16327; assay: Checkerboard antibiotic MIC with Compound B; type: cell-based, Escherichia coli
Experimental: as §1, §2

[7] = test system: E. coli strain 14384; assay: Checkerboard antibiotic MIC with Compound B; type: cell-based, Escherichia coli
Experimental: as §1, §2

[8] = test system: E. coli strain 14182; assay: Checkerboard antibiotic MIC with Compound B; type: cell-based, Escherichia coli
Experimental: as §1, §2

[9] = test system: E. coli 25922; assay: Time-kill kinetics in broth versus plasma; type: cell-based, Escherichia coli
Experimental: as §3

[10] = Oral 20 mg/kg, published data, cited from earlier work

CO[C@H]1/C=C/O[C@@]2(C)Oc3c(C)c(O)c4c(O)c(c(/C=N/N5CCN(C)CC5)c(O)c4c3C2=O)NC(=O)/C(C)=C\C=C\[C@H](C)[C@H](O)[C@@H](C)[C@@H](O)[C@@H](C)[C@H](OC(C)=O)[C@@H]1C [Rifampin, rifampin]
antibiotic MICs in the absence of the compound, all the strains tested [1]: 8 to 16 µg/mL
survival rate of infected mice [2]: zero
reduction of CFU count ([3]; 0.06 μg/ml rifampin in the presence of Compound B (10 μM), simultaneous, 3 hours in LB): ~4 log units
effect of delayed exposure on sensitization by Compound B ([3]; Compound B 10 μM with 0.06 μg/ml rifampin or 4 μg/ml erythromycin, LB): nearly abolished the sensitization effect
Antibiotic MIC in the presence of Compound B ([4]; Compound B 0 μM): 8 µg/mL
Antibiotic MIC in the presence of Compound B ([4]; Compound B 5 μM): 0.016 µg/mL
Antibiotic MIC in the presence of Compound B ([4]; Compound B 10 μM): 0.002 µg/mL
Antibiotic MIC in the presence of Compound B ([5]; Compound B 0 μM): 8 to 16 µg/mL
Antibiotic MIC in the presence of Compound B ([5]; Compound B 0 μM, listed as rifampin): 16 µg/mL
Antibiotic MIC in the presence of Compound B ([5]; Compound B 2.5 μM): 0.063 µg/mL
Antibiotic MIC in the presence of Compound B ([5]; Compound B 5 μM): 0.004 µg/mL
Antibiotic MIC in the presence of Compound B ([5]; Compound B 10 μM): 0.001 µg/mL
MIC ([5]; Escherichia coli, read-out: rifampin's MIC value, in the presence of Compound B): 0.001 µg/mL
Antibiotic MIC in the presence of Compound B ([6]; Compound B 0 μM): 16 µg/mL
Antibiotic MIC in the presence of Compound B ([6]; Compound B 2.5 μM): 0.031 µg/mL
Antibiotic MIC in the presence of Compound B ([6]; Compound B 5 μM): 0.004 µg/mL
Antibiotic MIC in the presence of Compound B ([6]; Compound B 10 μM): 0.002 µg/mL
Antibiotic MIC in the presence of Compound B ([7]; Compound B 0 μM): 8 µg/mL
Antibiotic MIC in the presence of Compound B ([7]; Compound B 2.5 μM): 0.016 µg/mL
Antibiotic MIC in the presence of Compound B ([7]; Compound B 5 μM): 0.008 µg/mL
Antibiotic MIC in the presence of Compound B ([7]; Compound B 10 μM): 0.002 µg/mL
Antibiotic MIC in the presence of Compound B ([8]; Compound B 0 μM): 8 µg/mL
Antibiotic MIC in the presence of Compound B ([8]; Compound B 2.5 μM): 0.031 µg/mL
Antibiotic MIC in the presence of Compound B ([8]; Compound B 5 μM): 0.004 µg/mL
Antibiotic MIC in the presence of Compound B ([8]; Compound B 10 μM): 0.002 µg/mL
reduction of bacterial survival ([9]; LB broth, 24-hours end point, rifampin 1 μg/ml combined with Compound B 0.6 μM): more than 99%
reduction of CFU count ([9]; human plasma, within 2 hours of exposure, rifampin 1 μg/ml with Compound B 0.6 μM): more than 3 log units
time to accomplish the CFU reduction (more than 3 log units) ([9]; human plasma, antibiotic with Compound B 0.6 μM): ≤ 2 hours
combined action with Compound B ([9]; mouse plasma, 24 hours end point, Compound B 10 μM with rifampin 1 μg/ml or erythromycin 3 μg/ml): expressed synergism of action
Plasma concentration ([10]; 0.5 h): 6500 ± 4700 ng/mL
Plasma concentration ([10]; 1 h): 10300 ± 400 ng/mL
Plasma concentration ([10]; 2 h): 13200 ± 4400 ng/mL

Source: patent US20200399308A1, “COMPOUNDS AND METHODS FOR ELICITING ANTIMICROBIAL ACTIVITY” (Technion Research & Development Foundation Limited, priority 2018, published 2020)
